pIC50: −log10 of the molar value. Like-named read-outs stand apart in the source and are kept apart here. Non-standard residues stand in square brackets, D forms with d. Residues, ends and D or L forms follow the SMILES beside them.
Experiments:
[1] = Pharmacokinetic concentration-time profiles and parameters after i.v. and p.o. administration; format: in vivo, C57Bl/6N mice; conditions: mice; for peptide concentration detected in the blood: 4 h after single oral administration of 10 mg/kg; for brain/plasma ratio: 24 h after administration; for Cmax, brain / Cmax, plasma: 3H-label LSC; for Cmax, plasma: 3 mice/time point; for AUC %ID,0 - 1440, plasma: non-compartmental analysis; for F (AUC %ID), oral bioavailability: p.o. 10 mg/kg (ANK6, tANK6) or 15 mg/kg (cANK6r) versus i.v. 3.3 mg/kg, plasma AUC %ID
Procedure: The pharmacokinetic profiles were investigated in 180 male C57Bl/6N mice aged 13-14 weeks, weighing about 27.4 g in average. Mice were ordered at Charles River (Germany) and housed at least one week under standard housing conditions (12/12 h light-dark cycle, approximately 22°C room temperature and 54% humidity; water and food available ad libitum) in the animal facility of the Forschungszentrum Jülich GmbH before the experiments were carried out. All animal experiments were approved by the Animal Protection Committee of the local government according to the German Protection of Animals Act (LANUV, North-Rhine-Westphalia, Germany, Az.84-02.04.2017.A029).
To determine the concentration-time profiles of ANK6, tANK6, and cANK6r in murine brain, plasma, liver, kidney, and cerebrospinal fluid (CSF) after i.v. and p.o. administration, mixed solutions of non-labelled and ^3H-labelled peptides were prepared. The administered solutions contained 1 mg/mL (i.v.) or 3 mg/mL (p.o.) of the respective D-peptide including small amounts of ^3H-labelled peptides (0.54μg/mL ^3H-ANK6, 1.79μg/mL ^3H-tANK6, or 0.98μg/mL ^3H-cANK6r). Doses were administered by body weight: i.v. 3.3 mg/kg, ANK6 & tANK6 p.o. 10 mg/kg, cANK6r p.o. 15 mg/kg. Three male C57Bl/6N mice aged 13-14 weeks were investigated per time point whereby individual outliers were excluded from further evaluation. Organs were harvested as follows: i.v. 5, 10, 30, 60, 120, 240, 360, 1080, 1440 min; p.o.: 10, 20, 30, 60, 120, 240, 360, 1080, 1440 min.
Animals whose CSF was not extracted were anesthetized with isoflurane (cp-pharma, Germany) inhalation approximately 2 min before each organ harvesting time point. Afterwards, blood was taken by cardiac puncture and the heparinized blood was centrifuged (3000 g, 5 min, 4°C) to get plasma. The plasma in the supernatant was separated and 1:1 diluted with PBS. The right brain hemisphere, 200 mg of the big liver lobe, and the right kidney were removed, weighed, and homogenized in 500μL PBS (Precellys Ceramic Kit 1.4 mm, Precellys 24, Bertin technologies SAS, France). 100μL of the diluted plasma, the homogenized brain, liver, or kidney (in triplicates), or 1–5μL (exactly determined) of the extracted CSF (extraction procedure see below, single determination) were mixed with 10 mL scintillation cocktail (Ultima Gold XR, PerkinElmer, USA). The mixture was incubated overnight (100 rpm, room temperature).
Animals whose CSF was extracted (organ harvesting time points: 60 min, 240 min, 1440 min) were i.p. anesthetized with ketamine/medetomidine approximately 20 min before each sampling time point. When the mouse was in deep narcosis, the cisterna magna was laid free and punctuated with a small capillary to extract about 5μL of CSF as described before. Afterwards, cardiac puncture, organ extractions, and sample preparations were performed as described above.
Quantification of the amount of ^3H-labelled D-peptides was performed with a LSC and the results (dpm/sample) were converted into mg/mL or % injected dose (% ID)/mL for plasma and for CSF, or in mg/g or % ID/g for brain, liver, and kidney as described before. Total peptide concentrations in the samples were back-calculated from the measured ^3H-labelled peptides’ radioactivity as described before [[20, 25, 26, 29]].
The determined peptide concentrations were plotted over time to allow for comparison of all peptides’ uptake into brain, plasma, liver, kidney, and CSF. Concentrations at 0 min were set to 0 % ID/mL or 0 % ID/g except for plasma concentrations after i.v. administration. There, concentrations were linearly back-extrapolated based on the first two measured time points (5 min, 10 min).
To calculate the pharmacokinetic parameters of ANK6, tANK6, and cANK6r for plasma and brain, concentration-time profiles were analyzed. […]

[2] = Cell viability assay (MTT), Aβ1-42-induced cytotoxicity; format: cell-based, rat
Procedure: The cells (10,000 cells/well) were incubated on collagen coated 96 well plates (Gibco, Life Technologies, # A11428-03) for growth in adherent cell culture (24 h, 37°C). Oligomeric Aβ was generated by incubating monomeric Aβ1 - 42 in sodium phosphate buffer (10 mM Na2HPO4/NaH2PO4, pH 7.4) at 21°C and 600 rpm agitation for 4.5 h. […] Absorbance readout was detected with a Polarstar Optima plate reader (BMG, Germany) at 570 and 660 nm. The relative cell viability [%] was calculated by normalizing the absorbance readout to the positive control (PC12 cells incubated with buffer). The IC50 value was determined by plotting the relative cell viability [%] against the respective D-peptides' concentrations. Datasets were fitted by nonlinear regression (logistic fit; OriginPro 9.0G).

[3] = target: human serum albumin (HSA) (Homo sapiens, UniProt P02768); experiment: Plasma protein binding, TRANSIL XL HSA binding kit; format: in vitro ADME; conditions: TRANSIL XL HSA beads 7.4-420 μM, 5 μM peptide (3H-labelled + non-labelled), LSC read-out, nonlinear regression
human serum albumin (HSA), sequence (P02768 25-609): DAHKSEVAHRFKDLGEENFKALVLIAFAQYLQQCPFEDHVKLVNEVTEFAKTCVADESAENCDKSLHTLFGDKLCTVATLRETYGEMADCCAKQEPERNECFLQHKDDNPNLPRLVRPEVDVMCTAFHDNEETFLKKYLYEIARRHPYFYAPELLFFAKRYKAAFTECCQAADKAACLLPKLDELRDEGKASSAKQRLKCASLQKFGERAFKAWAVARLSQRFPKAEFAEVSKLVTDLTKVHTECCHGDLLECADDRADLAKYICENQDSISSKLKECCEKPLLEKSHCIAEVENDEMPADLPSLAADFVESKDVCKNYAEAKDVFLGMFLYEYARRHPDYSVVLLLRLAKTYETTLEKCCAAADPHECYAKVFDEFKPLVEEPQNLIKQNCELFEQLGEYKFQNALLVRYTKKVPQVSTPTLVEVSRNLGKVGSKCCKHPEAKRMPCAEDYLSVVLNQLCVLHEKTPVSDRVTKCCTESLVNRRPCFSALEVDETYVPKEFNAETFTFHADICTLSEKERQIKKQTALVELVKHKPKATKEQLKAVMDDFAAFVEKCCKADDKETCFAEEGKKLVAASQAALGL
Procedure: Plasma protein binding (PPB) to human serum albumin (HSA) and α1-acid glycoprotein (AGP) of ANK6, tANK6, and cANK6r was analyzed according to the manufacturer’s protocol of TRANSIL^XL HSA and AGP binding kits (Sovicell GmbH, Germany). To cover a larger range of HSA and AGP concentrations, the bead concentrations in the kit were modified. For detection, a mixture of ^3H-labelled and non-labelled ANK6, tANK6, and cANK6r (final concentrations of 5μM) was added to different concentrations of HSA (7.4μM to 420μM, 10–12 different concentrations) or AGP beads (0.04μM to 3μM, 9–12 different concentrations). The amount of unbound ANK6, tANK6, and cANK6r (in %) to HSA or AGP, respectively, was determined by liquid scintillation counter (LSC) measurements. The dissociation constants (KD) as well as the free drug fractions (fu) in human plasma were calculated as described before. Calculations were based on peptide concentrations detected in the blood 4 h after single oral administration of 10 mg/kg: 0.01μM ANK6, 0.01μM tANK6, and 0.01μM cANK6r.

[4] = i.v. 3.3 mg/kg, back-extrapolated to 0 min
[5] = p.o. 10 mg/kg (ANK6, tANK6) or 15 mg/kg (cANK6r)

AUC %ID,0 - 1440, brain ([1]; i.v. 3.3 mg/kg) | CL, terminal plasma clearance ([1]; i.v. 3.3 mg/kg) | MRT, plasma ([1]; i.v. 3.3 mg/kg) | t1/2, terminal half-life, plasma ([1]; i.v. 3.3 mg/kg) | tmax, brain ([1]; i.v. 3.3 mg/kg) | tmax, plasma ([1]; i.v. 3.3 mg/kg) | λz, terminal elimination rate constant, plasma ([1]; i.v. 3.3 mg/kg) | Cmax, brain ([1]; i.v. 3.3 mg/kg) | Cmax, plasma [1, 4] | AUC %ID,0 - 1440, plasma ([1]; i.v. 3.3 mg/kg) | AUC %ID,0 - 1440, brain [1, 5] | CL, terminal plasma clearance [1, 5] | MRT, plasma [1, 5] | t1/2, terminal half-life, plasma [1, 5] | tmax, brain [1, 5] | tmax, plasma [1, 5] | λz, terminal elimination rate constant, plasma [1, 5] | F (AUC %ID), oral bioavailability [1] | Cmax, brain [1, 5] | Cmax, plasma [1, 5] | SMILES | also measured
56.6 min*% ID/g | 88.9 mL/min/kg | 7 h | 18 h | 0.5 h | 0 h | 0.00063 min⁻¹ | 0.06 % ID/g | 0.40 % ID/mL | 26.1 min*% ID/mL | 22.5 min*% ID/g | 113.0 mL/min/kg | 11 h | 31 h | 18 h | 4 h | 0.00038 min⁻¹ | 49.4% | 0.02 % ID/g | 0.02 % ID/mL | CC[C@@H](C)[C@@H](NC(=O)[C@@H](CCCNC(=N)N)NC(=O)[C@@H](CCCCN)NC(=O)[C@H](N)CCCNC(=N)N)C(=O)N[C@H](CCCNC(=N)N)C(=O)N[C@H](CC(C)C)C(=O)N[C@@H](C(=O)N[C@@H](C(=O)N[C@H](CCCCN)C(=O)N[C@H](CCCCN)C(=O)N[C@H](CCCCN)C(=O)N[C@H](CCCNC(=N)N)C(=O)N[C@H](CCCNC(=N)N)C(=O)N[C@H](CCCCN)C(=O)N[C@H](CCCNC(=N)N)C(=O)N[C@@H](C(=O)N[C@H](CCCNC(=N)N)C(=O)N[C@H](CC(C)C)C(=O)N[C@@H](C(=O)N[C@@H](C(=O)N[C@H](CCCCN)C(=O)N[C@H](CCCCN)C(=O)N[C@H](CCCCN)C(=O)N[C@H](CCCNC(=N)N)C(N)=O)[C@H](C)O)C(C)C)[C@H](C)CC)[C@H](C)O)C(C)C [tANK6] (H-[dR][dK][dR][dI][dR][dL][dV][dT][dK][dK][dK][dR][dR][dK][dR][dI][dR][dL][dV][dT][dK][dK][dK][dR]-NH2; N-terminus assumed) | peptide concentration detected in the blood [1]: 0.01 µM; brain/plasma ratio ([1]; i.v.): 6.89; AUC %ID,0 - 1440, plasma [1, 5]: 12.9 min*% ID/mL; pIC50 [2]: 5.36
85.6 min*% ID/g | 18.4 mL/min/kg | 2 h | 18 h | 0.083 h | 0 h | 0.00064 min⁻¹ | 0.12 % ID/g | 3.29 % ID/mL | 181.0 min*% ID/mL | 19.1 min*% ID/g | 135.5 mL/min/kg | 9 h | 30 h | 6 h | 1 h | 0.00039 min⁻¹ | 9.9% | 0.02 % ID/g | 0.05 % ID/mL | CC[C@@H](C)[C@H]1NC(=O)[C@@H](CCCNC(=N)N)NC(=O)[C@@H](CCCCN)NC(=O)[C@@H](CCCNC(=N)N)NC(=O)[C@@H](CCCNC(=N)N)NC(=O)[C@@H](CCCNC(=N)N)NC(=O)[C@@H](CCCCN)NC(=O)[C@@H](CCCCN)NC(=O)[C@@H](CCCCN)NC(=O)[C@@H]([C@H](C)O)NC(=O)[C@@H](C(C)C)NC(=O)[C@@H](CC(C)C)NC(=O)[C@@H](CCCNC(=N)N)NC1=O [cANK6r] (cyclo([dR][dK][dR][dI][dR][dL][dV][dT][dK][dK][dK][dR][dR])) | brain/plasma ratio ([1]; p.o.): 1.17; AUC %ID,0 - 1440, plasma [1, 5]: 17.9 min*% ID/mL; pIC50 [2]: 4.85

SMILES | AUC %ID,0 - 1440, brain ([1]; i.v. 3.3 mg/kg) | CL, terminal plasma clearance ([1]; i.v. 3.3 mg/kg) | MRT, plasma ([1]; i.v. 3.3 mg/kg) | t1/2, terminal half-life, plasma ([1]; i.v. 3.3 mg/kg) | tmax, brain ([1]; i.v. 3.3 mg/kg) | tmax, plasma ([1]; i.v. 3.3 mg/kg) | λz, terminal elimination rate constant, plasma ([1]; i.v. 3.3 mg/kg) | Cmax, brain ([1]; i.v. 3.3 mg/kg) | Cmax, plasma [1, 4] | AUC %ID,0 - 1440, plasma ([1]; i.v. 3.3 mg/kg) | AUC %ID,0 - 1440, brain [1, 5] | CL, terminal plasma clearance [1, 5] | MRT, plasma [1, 5] | t1/2, terminal half-life, plasma [1, 5] | tmax, brain [1, 5] | tmax, plasma [1, 5] | λz, terminal elimination rate constant, plasma [1, 5] | F (AUC %ID), oral bioavailability [1] | Cmax, brain [1, 5] | Cmax, plasma [1, 5] | also measured
CC[C@@H](C)[C@@H](NC(=O)[C@@H](CCCNC(=N)N)NC(=O)[C@@H](CCCCN)NC(=O)[C@H](N)CCCNC(=N)N)C(=O)N[C@H](CCCNC(=N)N)C(=O)N[C@H](CC(C)C)C(=O)N[C@@H](C(=O)N[C@@H](C(=O)N[C@H](CCCCN)C(=O)N[C@H](CCCCN)C(=O)N[C@H](CCCCN)C(=O)N[C@H](CCCNC(=N)N)C(N)=O)[C@H](C)O)C(C)C [ANK6] (H-[dR][dK][dR][dI][dR][dL][dV][dT][dK][dK][dK][dR]-NH2; N-terminus assumed) | 35.8 min*% ID/g | 32.0 mL/min/kg | 3 h | 15 h | 0.083 h | 0 h | 0.00077 min⁻¹ | 0.07 % ID/g | 3.17 % ID/mL | 91.7 min*% ID/mL | 11.0 min*% ID/g | 174.5 mL/min/kg | 10 h | 22 h | 1 h | 2 h | 0.00054 min⁻¹ | 11.8% | 0.01 % ID/g | 0.02 % ID/mL | peptide concentration detected in the blood [1]: 0.01 µM; CSF levels ([1]; about 60 min after both types of administration (i.v., p.o.)): Extraordinary high CSF levels; AUC %ID,0 - 1440, plasma [1, 5]: 10.8 min*% ID/mL; KD to HSA [3]: not analyzable; pIC50 ([2]; PC12 cells, MTT, 1 μM oligomeric Aβ1-42, peptide 0.008-15 μM, overnight 37°C, quintuplicates, logistic fit, read-out: IC50, reduction of Aβ1-42-induced cytotoxicity (cell viability)): 4.95
